Test results published in patent US10633353B2, “Polymerizable compound, composition, polymer, optically anisotropic body, liquid crystal display element, and organic EL display” (DIC Corporation, priority 2014, dated 2020).

experiment: Preservation stability of the coating liquid; assay type: physicochemical; conditions: coating liquid stored for 2 months shielded from light at 0° C.; appearance and GPC
Method: The preservation stability of the coating liquid was evaluated on a scale of A to E on the basis of the state of the coating liquid that was stored for 2 months under a condition where the coating liquid was shielded from light at 0° C.
A: No visual change in the appearance of the coating liquid was confirmed. A GPC analysis of the coating liquid confirmed that the change in the composition of the coating liquid was 1% or less.
B: No visual change in the appearance of the coating liquid was confirmed. A GPC analysis of the coating liquid confirmed that the change in the composition of the coating liquid was 2% or less.
C: A visual change in the appearance of the coating liquid was confirmed; a trace amount of insoluble components were confirmed, or a GPC analysis of the coating liquid confirmed that the change in the composition of the coating liquid was 3% or less.
D: A visual change in the appearance of the coating liquid was confirmed; insoluble components were confirmed. The ratio of the weight of the insoluble components to the total solid content was 5% or less.
E: A large amount of insoluble components were visually confirmed. The ratio of the weight of the insoluble components to the total solid content was 5% or more.

SMILES	Preservation stability
C=CC(=O)OCCCCCCOc1ccc(C(=O)OCCc2ccc(OC(=O)c3ccc(OCCCCCCOC(=O)C=C)cc3)c(/C=N/Nc3nc4ccccc4s3)c2)cc1 [1-c-1]	A (No visual change in the appearance of the coating liquid was confirmed. A GPC analysis of the coating liquid confirmed that the change in the composition of the coating liquid was 1% or less.)
C=CC(=O)OCCCOc1ccc(C(=O)OCCc2ccc(OC(=O)c3ccc(OCCCOC(=O)C=C)cc3)c(/C=N/Nc3nc4ccccc4s3)c2)cc1 [1-c-2]	A (No visual change in the appearance of the coating liquid was confirmed. A GPC analysis of the coating liquid confirmed that the change in the composition of the coating liquid was 1% or less.)
C=CC(=O)OCCCCOc1ccc(C(=O)OCCc2ccc(OC(=O)c3ccc(OCCCCOC(=O)C=C)cc3)c(/C=N/Nc3nc4ccccc4s3)c2)cc1 [1-c-3]	A (No visual change in the appearance of the coating liquid was confirmed. A GPC analysis of the coating liquid confirmed that the change in the composition of the coating liquid was 1% or less.)
C=CC(=O)OCCCCCOc1ccc(C(=O)OCCc2ccc(OC(=O)c3ccc(OCCCCCOC(=O)C=C)cc3)c(/C=N/Nc3nc4ccccc4s3)c2)cc1 [1-c-4]	A (No visual change in the appearance of the coating liquid was confirmed. A GPC analysis of the coating liquid confirmed that the change in the composition of the coating liquid was 1% or less.)
C=C(C)C(=O)OCCCOc1ccc(C(=O)OCCc2ccc(OC(=O)c3ccc(OCCCOC(=O)C(=C)C)cc3)c(/C=N/Nc3nc4ccccc4s3)c2)cc1 [1-c-5]	A (No visual change in the appearance of the coating liquid was confirmed. A GPC analysis of the coating liquid confirmed that the change in the composition of the coating liquid was 1% or less.)
C=C(C)C(=O)OCCCCOc1ccc(C(=O)OCCc2ccc(OC(=O)c3ccc(OCCCCOC(=O)C(=C)C)cc3)c(/C=N/Nc3nc4ccccc4s3)c2)cc1 [1-c-6]	A (No visual change in the appearance of the coating liquid was confirmed. A GPC analysis of the coating liquid confirmed that the change in the composition of the coating liquid was 1% or less.)
C=C(C)C(=O)OCCCCCOc1ccc(C(=O)OCCc2ccc(OC(=O)c3ccc(OCCCCCOC(=O)C(=C)C)cc3)c(/C=N/Nc3nc4ccccc4s3)c2)cc1 [1-c-7]	A (No visual change in the appearance of the coating liquid was confirmed. A GPC analysis of the coating liquid confirmed that the change in the composition of the coating liquid was 1% or less.)
C=C(C)C(=O)OCCCCCCOc1ccc(C(=O)OCCc2ccc(OC(=O)c3ccc(OCCCCCCOC(=O)C(=C)C)cc3)c(/C=N/Nc3nc4ccccc4s3)c2)cc1 [1-c-8]	A (No visual change in the appearance of the coating liquid was confirmed. A GPC analysis of the coating liquid confirmed that the change in the composition of the coating liquid was 1% or less.)
C=CC(=O)OCCCOc1ccc(C(=O)OCCc2ccc(CCOC(=O)c3ccc(OCCCOC(=O)C=C)cc3)c(/C=N/Nc3nc4ccccc4s3)c2)cc1 [1-c-9]	A (No visual change in the appearance of the coating liquid was confirmed. A GPC analysis of the coating liquid confirmed that the change in the composition of the coating liquid was 1% or less.)
C=CC(=O)OCCCCOc1ccc(C(=O)OCCc2ccc(CCOC(=O)c3ccc(OCCCCOC(=O)C=C)cc3)c(/C=N/Nc3nc4ccccc4s3)c2)cc1 [1-c-10]	A (No visual change in the appearance of the coating liquid was confirmed. A GPC analysis of the coating liquid confirmed that the change in the composition of the coating liquid was 1% or less.)
C=CC(=O)OCCCCCOc1ccc(C(=O)OCCc2ccc(CCOC(=O)c3ccc(OCCCCCOC(=O)C=C)cc3)c(/C=N/Nc3nc4ccccc4s3)c2)cc1 [1-c-11]	A (No visual change in the appearance of the coating liquid was confirmed. A GPC analysis of the coating liquid confirmed that the change in the composition of the coating liquid was 1% or less.)
C=CC(=O)OCCCCCCOc1ccc(C(=O)OCCc2ccc(CCOC(=O)c3ccc(OCCCCCCOC(=O)C=C)cc3)c(/C=N/Nc3nc4ccccc4s3)c2)cc1 [1-c-12]	A (No visual change in the appearance of the coating liquid was confirmed. A GPC analysis of the coating liquid confirmed that the change in the composition of the coating liquid was 1% or less.)
C=CC(=O)OCCCOc1ccc(OC(=O)C2CCC(C(=O)OCCc3ccc(OC(=O)C4CCC(C(=O)Oc5ccc(OCCCOC(=O)C=C)cc5)CC4)c(C=NNc4nc5ccccc5s4)c3)CC2)cc1 (centres unmarked) [1-c-13]	A (No visual change in the appearance of the coating liquid was confirmed. A GPC analysis of the coating liquid confirmed that the change in the composition of the coating liquid was 1% or less.)
C=CC(=O)OCCCCOc1ccc(OC(=O)C2CCC(C(=O)OCCc3ccc(OC(=O)C4CCC(C(=O)Oc5ccc(OCCCCOC(=O)C=C)cc5)CC4)c(C=NNc4nc5ccccc5s4)c3)CC2)cc1 (centres unmarked) [1-c-14]	A (No visual change in the appearance of the coating liquid was confirmed. A GPC analysis of the coating liquid confirmed that the change in the composition of the coating liquid was 1% or less.)
C=CC(=O)OCCCCCOc1ccc(OC(=O)C2CCC(C(=O)OCCc3ccc(OC(=O)C4CCC(C(=O)Oc5ccc(OCCCCCOC(=O)C=C)cc5)CC4)c(C=NNc4nc5ccccc5s4)c3)CC2)cc1 (centres unmarked) [1-c-15]	A (No visual change in the appearance of the coating liquid was confirmed. A GPC analysis of the coating liquid confirmed that the change in the composition of the coating liquid was 1% or less.)
C=CC(=O)OCCCOc1ccc(C(=O)OCCc2ccc(OC(=O)c3ccc(OCCCOC(=O)C=C)cc3)c(/C=N/Nc3nc4cc([N+](=O)[O-])ccc4s3)c2)cc1 [1-c-23]	B (No visual change in the appearance of the coating liquid was confirmed. A GPC analysis of the coating liquid confirmed that the change in the composition of the coating liquid was 2% or less.)
C=CC(=O)OCCCOc1ccc(C(=O)OCCc2ccc(OC(=O)c3ccc(OCCCOC(=O)C=C)cc3)c(/C=N/Nc3nc4cc(Cl)ccc4s3)c2)cc1 [1-c-24]	B (No visual change in the appearance of the coating liquid was confirmed. A GPC analysis of the coating liquid confirmed that the change in the composition of the coating liquid was 2% or less.)
C=CC(=O)OCCCOc1ccc(C(=O)OCCc2ccc(OC(=O)c3ccc(OCCCOC(=O)C=C)cc3)c(/C=N/Nc3nc4cc(C#N)ccc4s3)c2)cc1 [1-c-25]	B (No visual change in the appearance of the coating liquid was confirmed. A GPC analysis of the coating liquid confirmed that the change in the composition of the coating liquid was 2% or less.)
C=CC(=O)OCCCOc1ccc(C(=O)OCCc2ccc(OC(=O)c3ccc(OCCCOC(=O)C=C)cc3)c(/C=N/Nc3nc4cc(CCC)ccc4s3)c2)cc1 [1-c-26]	A (No visual change in the appearance of the coating liquid was confirmed. A GPC analysis of the coating liquid confirmed that the change in the composition of the coating liquid was 1% or less.)
C=CC(=O)OCCCCOc1ccc(C(=O)OCCc2ccc(OC(=O)c3ccc(OCCCCOC(=O)CC)cc3)c(/C=N/Nc3cc4ccccc4[nH]3)c2)cc1 [1-c-28]	B (No visual change in the appearance of the coating liquid was confirmed. A GPC analysis of the coating liquid confirmed that the change in the composition of the coating liquid was 2% or less.)
C=CC(=O)OCCCCCOc1ccc(C(=O)OCCc2ccc(OC(=O)c3ccc(OCCCCCOC(=O)C=C)cc3)c(/C=N/Nc3nc4cc(O)c([N+](=O)[O-])cc4[nH]3)c2)cc1 [1-c-29]	B (No visual change in the appearance of the coating liquid was confirmed. A GPC analysis of the coating liquid confirmed that the change in the composition of the coating liquid was 2% or less.)
C=CC(=O)OCCCCCCOc1ccc(C(=O)OCCc2ccc(OC(=O)c3ccc(OCCCCCCOC(=O)C=C)cc3)c(/C=N/Nc3nc4cc([N+](=O)[O-])ccc4s3)c2)cc1 [1-c-30]	B (No visual change in the appearance of the coating liquid was confirmed. A GPC analysis of the coating liquid confirmed that the change in the composition of the coating liquid was 2% or less.)
C=CC(=O)OCCCCCCOc1ccc(C(=O)OCCc2ccc(OC(=O)c3ccc(OCCCCCCOC(=O)C=C)cc3)c(/C=N/Nc3ccc(C#Cc4ccccc4)cc3)c2)cc1 [1-c-31]	B (No visual change in the appearance of the coating liquid was confirmed. A GPC analysis of the coating liquid confirmed that the change in the composition of the coating liquid was 2% or less.)
C=CC(=O)OCCCCCCOc1ccc(C(=O)OCCc2ccc(OC(=O)c3ccc(OCCCCCCOC(=O)C=C)cc3)c(/C=N/Nc3ccc4ccccc4c3)c2)cc1 [1-c-32]	B (No visual change in the appearance of the coating liquid was confirmed. A GPC analysis of the coating liquid confirmed that the change in the composition of the coating liquid was 2% or less.)
C=CC(=O)OCCCCCCOc1ccc(C(=O)OCCc2ccc(OC(=O)c3ccc(OCCCCCCOC(=O)C=C)cc3)c(/C=N/Nc3nc4ccc5ccccc5c4s3)c2)cc1 [1-c-33]	B (No visual change in the appearance of the coating liquid was confirmed. A GPC analysis of the coating liquid confirmed that the change in the composition of the coating liquid was 2% or less.)
C=CC(=O)OCCCCCCOc1ccc(C(=O)OCCc2ccc(OC(=O)c3ccc(OCCCCCCOC(=O)C=C)cc3)c(/C=N/Nc3nc(-c4ccc5ccccc5c4)cs3)c2)cc1 [1-c-34]	B (No visual change in the appearance of the coating liquid was confirmed. A GPC analysis of the coating liquid confirmed that the change in the composition of the coating liquid was 2% or less.)
